# System: Ba
# Experiment: Phase 2a study: urinary Ba (MicroVue Ba Enzyme Immunoassay)
# Type: in vivo, human
# [1] = Patient A, 100 mg TID, Day 1/0 Hour
# [2] = Patient A, 100 mg TID, Day 7/0 Hour
# [3] = Patient A, 100 mg TID, Day 15 Taper
# [4] = Patient A, 100 mg TID, Day 16 Taper
# [5] = Patient A, 100 mg TID, Day 17 Taper
# [6] = Patient A, 100 mg TID, Day 21 Taper
# [7] = Patient A, 100 mg TID, Follow-Up Day 24
# [8] = Patient A, 100 mg TID, Follow-Up Day 28
# [9] = Patient A, 100 mg TID, Follow-Up Day 49
# [10] = Patient B, 100 mg TID, Day 1/0 Hour
# [11] = Patient B, 100 mg TID, Day 7/0 Hour
# [12] = Patient B, 100 mg TID, Day 15 Taper
# [13] = Patient B, 100 mg TID, Day 16 Taper
# [14] = Patient B, 100 mg TID, Day 17 Taper
# [15] = Patient B, 100 mg TID, Day 21 Taper
# [16] = Patient B, 100 mg TID, Follow-Up Day 24
# [17] = Patient B, 100 mg TID, Follow-Up Day 28
# [18] = Patient B, 100 mg TID, Follow-Up Day 49
# [19] = Patient C, 200 mg TID, Day 1/0 Hour
# [20] = Patient C, 200 mg TID, Day 7/0 Hour
# [21] = Patient C, 200 mg TID, Day 15 Taper
# [22] = Patient C, 200 mg TID, Day 16 Taper
# [23] = Patient C, 200 mg TID, Day 17 Taper
# [24] = Patient C, 200 mg TID, Day 21 Taper
# [25] = Patient C, 200 mg TID, Follow-Up Day 24
# [26] = Patient C, 200 mg TID, Follow-Up Day 28
# [27] = Patient C, 200 mg TID, Follow-Up Day 49
# [28] = Patient D, 200 mg TID, Day 1/0 Hour
# [29] = Patient D, 200 mg TID, Day 7/0 Hour
# [30] = Patient D, 200 mg TID, Day 15 Taper
# [31] = Patient D, 200 mg TID, Day 17 Taper
# [32] = Patient D, 200 mg TID, Day 21 Taper
smiles,measurement,setting,value
"CC(=O)c1nn(CC(=O)N2C[C@H](F)C[C@H]2C(=O)Nc2cccc(Br)n2)c2ccc(-c3cnc(C)nc3)cc12 [Compound 1, (2S,4R)-1-(2-(3-acetyl-5-(2-methylpyrimidin-5-yl)-1H-indazol-1-yl)acetyl)-N-(6-bromopyridin-2-yl)-4-fluoropyrrolidine-2-carboxamide]",Ba/ALB,[1],22.1 ng/mg
same,Ba/Cr,[1],5.7 µg/mmol
same,Urine Ba,[1],47.1 ng/mL
same,Ba/ALB,"Patient A, 100 mg TID, Day 4",8.4 ng/mg
same,Ba/Cr,"Patient A, 100 mg TID, Day 4",1.8 µg/mmol
same,Urine Ba,"Patient A, 100 mg TID, Day 4",14.7 ng/mL
same,Ba/ALB,[2],7.5 ng/mg
same,Ba/Cr,[2],1.8 µg/mmol
same,Urine Ba,[2],11.6 ng/mL
same,Ba/ALB,"Patient A, 100 mg TID, Day 10",6.1 ng/mg
same,Ba/Cr,"Patient A, 100 mg TID, Day 10",1.4 µg/mmol
same,Urine Ba,"Patient A, 100 mg TID, Day 10",8.6 ng/mL
same,Ba/ALB,[3],11.4 ng/mg
same,Ba/Cr,[3],1.6 µg/mmol
same,Urine Ba,[3],11.9 ng/mL
same,Ba/ALB,[4],16.3 ng/mg
same,Ba/Cr,[4],2.3 µg/mmol
same,Urine Ba,[4],17.4 ng/mL
same,Ba/ALB,[5],18.6 ng/mg
same,Ba/Cr,[5],2.1 µg/mmol
same,Urine Ba,[5],21.2 ng/mL
same,Ba/ALB,[6],65.5 ng/mg
same,Ba/Cr,[6],9.2 µg/mmol
same,Urine Ba,[6],79.8 ng/mL
same,Ba/ALB,[7],83.3 ng/mg
same,Ba/Cr,[7],11.5 µg/mmol
same,Urine Ba,[7],115.3 ng/mL
same,Ba/ALB,[8],77.1 ng/mg
same,Ba/Cr,[8],10.2 µg/mmol
same,Urine Ba,[8],100.8 ng/mL
same,Ba/ALB,[9],26.5 ng/mg
same,Ba/Cr,[9],3.8 µg/mmol
same,Urine Ba,[9],16.5 ng/mL
same,Ba/ALB,"Patient A, 100 mg TID, Screen",15.0 ng/mg
same,Ba/Cr,"Patient A, 100 mg TID, Screen",3.4 µg/mmol
same,Urine Ba,"Patient A, 100 mg TID, Screen",28.3 ng/mL
same,Ba/ALB,[10],225 ng/mg
same,Ba/Cr,[10],129.9 µg/mmol
same,Urine Ba,[10],793 ng/mL
same,Ba/ALB,"Patient B, 100 mg TID, Day 4",47 ng/mg
same,Ba/Cr,"Patient B, 100 mg TID, Day 4",12.4 µg/mmol
same,Urine Ba,"Patient B, 100 mg TID, Day 4",158 ng/mL
same,Ba/ALB,[11],41 ng/mg
same,Ba/Cr,[11],10.2 µg/mmol
same,Urine Ba,[11],149 ng/mL
same,Ba/ALB,"Patient B, 100 mg TID, Day 10",28 ng/mg
same,Ba/Cr,"Patient B, 100 mg TID, Day 10",7.0 µg/mmol
same,Urine Ba,"Patient B, 100 mg TID, Day 10",53 ng/mL
same,Ba/ALB,"Patient B, 100 mg TID, Day 14",54 ng/mg
same,Ba/Cr,"Patient B, 100 mg TID, Day 14",14.2 µg/mmol
same,Urine Ba,"Patient B, 100 mg TID, Day 14",238 ng/mL
same,Ba/ALB,[12],58 ng/mg
same,Ba/Cr,[12],19.0 µg/mmol
same,Urine Ba,[12],209 ng/mL
same,Ba/ALB,[13],77 ng/mg
same,Ba/Cr,[13],25.2 µg/mmol
same,Urine Ba,[13],318 ng/mL
same,Ba/ALB,[14],55 ng/mg
same,Urine Ba,[14],164 ng/mL
same,Ba/ALB,[15],43 ng/mg
same,Ba/Cr,[15],15.9 µg/mmol
same,Urine Ba,[15],129 ng/mL
same,Ba/ALB,[16],87 ng/mg
same,Ba/Cr,[16],41.1 µg/mmol
same,Urine Ba,[16],251 ng/mL
same,Ba/ALB,[17],65 ng/mg
same,Ba/Cr,[17],24.6 µg/mmol
same,Urine Ba,[17],175 ng/mL
same,Ba/ALB,[18],771 ng/mg
same,Ba/Cr,[18],108.0 µg/mmol
same,Urine Ba,[18],1727 ng/mL
same,Ba/ALB,"Patient B, 100 mg TID, Screen",97 ng/mg
same,Ba/Cr,"Patient B, 100 mg TID, Screen",47.1 µg/mmol
same,Urine Ba,"Patient B, 100 mg TID, Screen",348 ng/mL
same,Ba/ALB,[19],2.9 ng/mg
same,Ba/Cr,[19],0.168 µg/mmol
same,Urine Ba,[19],0.30 ng/mL
same,Ba/ALB,"Patient C, 200 mg TID, Day 4",1.5 ng/mg
same,Ba/Cr,"Patient C, 200 mg TID, Day 4",0.040 µg/mmol
same,Urine Ba,"Patient C, 200 mg TID, Day 4",0.08 ng/mL
same,Ba/ALB,[20],2.6 ng/mg
same,Ba/Cr,[20],0.056 µg/mmol
same,Urine Ba,[20],0.21 ng/mL
same,Ba/ALB,"Patient C, 200 mg TID, Day 10",1.5 ng/mg
same,Ba/Cr,"Patient C, 200 mg TID, Day 10",0.053 µg/mmol
same,Urine Ba,"Patient C, 200 mg TID, Day 10",0.08 ng/mL
same,Ba/ALB,"Patient C, 200 mg TID, Day 14",2.2 ng/mg
same,Ba/Cr,"Patient C, 200 mg TID, Day 14",0.068 µg/mmol
same,Urine Ba,"Patient C, 200 mg TID, Day 14",0.09 ng/mL
same,Ba/ALB,[21],2.2 ng/mg
same,Ba/Cr,[21],0.099 µg/mmol
same,Urine Ba,[21],0.15 ng/mL
same,Ba/ALB,[22],3.0 ng/mg
same,Ba/Cr,[22],0.078 µg/mmol
same,Urine Ba,[22],0.15 ng/mL
same,Ba/ALB,[23],1.8 ng/mg
same,Ba/Cr,[23],0.058 µg/mmol
same,Urine Ba,[23],0.13 ng/mL
same,Ba/ALB,[24],7.5 ng/mg
same,Ba/Cr,[24],0.175 µg/mmol
same,Urine Ba,[24],0.49 ng/mL
same,Ba/ALB,[25],2.3 ng/mg
same,Ba/Cr,[25],0.075 µg/mmol
same,Urine Ba,[25],0.14 ng/mL
same,Ba/ALB,[26],4.5 ng/mg
same,Ba/Cr,[26],0.213 µg/mmol
same,Urine Ba,[26],0.62 ng/mL
same,Ba/ALB,[27],1.7 ng/mg
same,Ba/Cr,[27],0.036 µg/mmol
same,Urine Ba,[27],0.16 ng/mL
same,Ba/ALB,"Patient C, 200 mg TID, Screen",1.5 ng/mg
same,Ba/Cr,"Patient C, 200 mg TID, Screen",0.065 µg/mmol
same,Urine Ba,"Patient C, 200 mg TID, Screen",0.12 ng/mL
same,Ba/ALB,[28],10.9 ng/mg
same,Ba/Cr,[28],2.5 µg/mmol
same,Urine Ba,[28],14.2 ng/mL
same,Ba/ALB,"Patient D, 200 mg TID, Day 4",3.5 ng/mg
same,Ba/Cr,"Patient D, 200 mg TID, Day 4",1.0 µg/mmol
same,Urine Ba,"Patient D, 200 mg TID, Day 4",4.4 ng/mL
same,Ba/ALB,[29],6.5 ng/mg
same,Ba/Cr,[29],2.1 µg/mmol
same,Urine Ba,[29],2.4 ng/mL
same,Ba/ALB,"Patient D, 200 mg TID, Day 10",2.8 ng/mg
same,Ba/Cr,"Patient D, 200 mg TID, Day 10",1.8 µg/mmol
same,Urine Ba,"Patient D, 200 mg TID, Day 10",1.8 ng/mL
same,Ba/ALB,"Patient D, 200 mg TID, Day 14",4.6 ng/mg
same,Ba/Cr,"Patient D, 200 mg TID, Day 14",1.3 µg/mmol
same,Urine Ba,"Patient D, 200 mg TID, Day 14",4.1 ng/mL
same,Ba/ALB,[30],4.3 ng/mg
same,Ba/Cr,[30],2.0 µg/mmol
same,Urine Ba,[30],8.4 ng/mL
same,Ba/ALB,[31],2.9 ng/mg
same,Ba/Cr,[31],1.7 µg/mmol
same,Urine Ba,[31],5.0 ng/mL
same,Ba/ALB,[32],7.8 ng/mg
same,Ba/Cr,[32],4.4 µg/mmol
